What was measured:
Format in all cases: cell-based
Human STING (HAQ allele) = target: T1, Human STING (HAQ allele) (Homo sapiens, UniProt Q86WV6, G230A/H232R/R293Q/R71H); assay: IRF3 reporter induction in THP1-Dual Human Monocytes cells (homozygous HAQ STING allele); settings: IRF3 reporter (secreted luciferase), 24 hours incubation
T1 construct: THP1-Dual™ Human Monocytes cells with the homozygous HAQ allele; host or cells: THP1-Dual human monocytes
Method: (§1) THP1-Dual™ Human Monocytes cells with the homozygous HAQ allele, known to be a natural variant allele of STING occurring in 20% of the human population (Invivogen) have been engineered with two independent gene reporter systems: a secreted embryonic alkaline phosphatase (SEAP) reporter gene for NFkB activity, and secreted luciferase reporter for […] (IRF3) activity were used. 4×10^5 THP1-Dual™ cells were incubated with test Compounds in a 5-fold titration steps from 1 to 0.0128 μM in RPMI media with 10% FBS, for 24 hours at 37° C. with 5% CO2. Cell culture supernatants (20 μl) from each incubated sample was added to resuspended QUANTI-Blue™ Solution (Invivogen, 180 μl) in each well of a flat-bottom 96-well plate, then incubated for 2 h. NFkB levels were evaluated using a spectrophotometer at 620-655 nm.
(§2) To evaluate IRF3 reporter levels, cell culture supernatant (20 μl) from each incubated sample was added to QUANTI-Luc™ assay solution (Invivogen, 50 μl), and the luminescence was measured with a SpectraMax M3 spectrophotometer (Molecular Devices).
(§3) The EC50 value was determined from the dose response curve based on reference Compounds. Table 2a provides the results for IRF3 reporter induction THP1-Dual™ Human Monocytes cells and Table 2b provides the results for IRF3 reporter induction in THP1-Dual™ KI-hSTING-H232 Cells and THP1-Dual™ KI-hSTING-R232 Cells (“A” means <30 nM; “B” means ≥30 nM and <100 nM; “C” means ≥100 nM).

[1] = target: T2, R232H human STING variant (Homo sapiens, UniProt Q86WV6); assay: IRF3 reporter induction in THP1-Dual KI-hSTING-H232 Cells; settings: THP1-Dual KI-hSTING-H232 Cells (R232H Haplotype)
T2 construct: host or cells: THP1-Dual KI-hSTING-H232 cells, generated from THP1-Dual KO-STING cells
Method: as §1, §2
(§4) NFkB and IRF3 reporter levels were also determined for THP1-Dual™ KI-hSTING-H232 Cells and THP1-Dual™ KI-hSTING-R232 Cells. THP1-Dual™ KI-hSTING-H232 Cells (R232H Haplotype) were generated from THP1-Dual™ KO-STING cells by knockin of the intronless coding sequence (from the ATG to TGA) of the R232H human STING variant (Invivogen). R232H has been identified as a natural variant allele of STING occurring in ˜14% of the human population. THP1-Dual™ KI-hSTING-R232 Cells (R232 Haplotype) were generated from THP1-Dual™ KO-STING cells by knockin of the intronless coding sequence (from the ATG to the TGA) of the R232 hSTING variant. Genomic studies indicate that this variant, which contains an arginine at position 232 (R232), is the most prevalent variant with an occurrence (homozygous allele) of ˜45-58% in the human population.
as §3

R232 hSTING variant = target: T3, R232 hSTING variant (Homo sapiens, UniProt Q86WV6, H232R); assay: IRF3 reporter induction in THP1-Dual KI-hSTING-R232 Cells; settings: THP1-Dual KI-hSTING-R232 Cells (R232 Haplotype)
T3 construct: expressed in transfected cells; host or cells: THP1-Dual KI-hSTING-R232 cells, generated from THP1-Dual KO-STING cells
Method: as §1, §2, §4, §3

Human STING = target: T4, Human STING (Homo sapiens, UniProt Q86WV6, G230A/H232R/R293Q/R71H); assay: Activation of human STING signaling in permeabilized THP1 cells, IRF3 induction; settings: THP1-Dual cells permeabilized with digitonin buffer 30 minutes on ice, then 24 h in RPMI media
T4 construct: host or cells: THP1-Dual cells, digitonin-permeabilized
Method: as §2
4×10^5 THP1-Dual™ cells (NF-κB-SEAP and IRF-Lucia luciferase Reporter Monocytes, Invivogen) were incubated with test Compounds in a 5-fold titration steps from […] in permeabilized buffer (50 mM HEPES pH 7.0, 100 mM KCl, 3 mM MgCl2, 85 mM sucrose, 0.2% BSA, 1 mM ATP, 0.1 mM GTP, 0.1 mM TTP, 1 μg/ml digitonin) for 30 minutes on ice. Cells were then washed and incubated in a fresh RPMI media with 10% FBS at 37° C. with 5% CO2 for 24 h. Cell culture supernatants from each sample were collected and NFkB and IRF3 were evaluated as above. Table 3 provides the results for IRF3 induction (“A” means <1 μM; “B” means ≥1 μM and <50 μM; “C” means ≥50 μM).

T4 sequence (Q86WV6 whole entry R71H/G230A/H232R/R293Q): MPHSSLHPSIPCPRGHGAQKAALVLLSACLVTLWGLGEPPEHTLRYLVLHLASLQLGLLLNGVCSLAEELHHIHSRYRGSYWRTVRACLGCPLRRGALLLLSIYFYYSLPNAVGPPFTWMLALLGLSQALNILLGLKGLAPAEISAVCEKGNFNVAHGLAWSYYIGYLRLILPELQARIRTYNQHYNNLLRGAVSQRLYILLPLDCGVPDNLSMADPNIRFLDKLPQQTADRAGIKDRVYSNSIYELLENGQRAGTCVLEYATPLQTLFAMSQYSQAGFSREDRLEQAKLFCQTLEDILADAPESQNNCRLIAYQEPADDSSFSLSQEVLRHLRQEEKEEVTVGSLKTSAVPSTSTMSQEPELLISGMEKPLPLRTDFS
T1 sequence (Q86WV6 whole entry R71H/G230A/H232R/R293Q): as above
T3 sequence (Q86WV6 whole entry H232R): as the sequence (Q86WV6 whole entry R71H/G230A/H232R/R293Q) above, with H71R, A230G, Q293R counted along it
T2 sequence (Q86WV6 whole entry, stated change not applied): as the sequence (Q86WV6 whole entry R71H/G230A/H232R/R293Q) above, with H71R, A230G, R232H, Q293R counted along it

Row | EC50 (Human STING (HAQ allele)) | EC50 [1] | EC50 (R232 hSTING variant) | EC50 (Human STING) | SMILES
1 | ≥ 100 nM | < 30 nM | < 30 nM | < 1000 nM | CCc1nc(C)oc1C(=O)/N=c1\sc2cc(C(N)=O)cc(OC)c2n1C/C=C/Cn1c(NC(=O)c2oc(C)nc2CC)nc2cc(C(N)=O)cc(OCCCO)c21 [compound 63]
2 | ≥ 100 nM | ≥ 100 nM | < 30 nM | < 1000 nM | CCc1nc(C)oc1C(=O)/N=c1\sc2cc(C(N)=O)cc(OC)c2n1C/C=C/Cn1c(NC(=O)c2oc(C)nc2CC)nc2cc(C(N)=O)cc(OCCCC(=O)O)c21 [compound 66]
3 | 30 to 100 nM | < 30 nM | < 30 nM | < 1000 nM | CCc1nc(C)oc1C(=O)Nc1nc2cc(C(N)=O)cnc2n1C/C=C/Cn1c(NC(=O)c2oc(C)nc2CC)nc2cc(C(N)=O)cc(OCCCO)c21 [compound 95]
4 | 30 to 100 nM | < 30 nM | < 30 nM | < 1000 nM | CCc1nc(C)oc1C(=O)/N=c1\sc2cc(C(N)=O)cnc2n1C/C=C/Cn1c(NC(=O)c2oc(C)nc2CC)nc2cc(C(N)=O)cc(OCCCO)c21 [compound 109]
5 | ≥ 100 nM | < 30 nM | < 30 nM | < 1000 nM | CCc1nc(C)oc1C(=O)/N=c1\sc2cc(C(N)=O)cc(OCCCO)c2n1C/C=C/Cn1c(NC(=O)c2oc(C)nc2CC)nc2cc(C(N)=O)cnc21 [compound 146]
6 | ≥ 100 nM | < 30 nM | < 30 nM | < 1000 nM | CCc1nc(C)oc1C(=O)/N=c1\sc2cc(C(N)=O)cc(OCCCO)c2n1C/C=C/Cn1c(NC(=O)c2cc(C)nn2CC)nc2cc(C(N)=O)cnc21 [compound 148]

From patent publication US11155567B2, “Sting agonist compounds and methods of use” (Mersana Therapeutics, Inc., priority 2019, dated 2021)
